The test system of assay [1] is MFE-296 endometrial cancer cell line. As to the kind of experiment: Combination cell growth assay (Chou and Talalay). Format: cell-based. To be noted: Homo sapiens, MFE-296, read-out: 1×EC50 concentration.
A further assay concerns KY01 CML leukemia cells. As to the kind of experiment: Cellular proliferation assay.
In a further assay the target is PI3Kα (Homo sapiens, UniProt P42336). As to the kind of experiment: Kinase assay (RBC).
Assay [2] deals with Phospho-Erk1/2 in AN3CA cells. As to the kind of experiment: Western immunoblotting. The conditions noted are these: Homo sapiens, AN3-CA, read-out: Phospho-Erk1/2 IC50 (nM). For orientation: In western blotting, separated proteins are transferred to a membrane and probed.
In another assay the test system is LAMA CML leukemia cells. The assay is described as follows: Cellular proliferation assay.
Assay [3] has as its system refractory hematologic malignancies (CML, Ph+ ALL). The assay is described as follows: Phase 1 clinical trial: hematologic, cytogenetic and molecular responses. Format: in vivo, human. To be noted: for complete hematologic response (CHR) in CP patients: overall best response. From the text: Fifty-seven patients (30 males) were enrolled and treated, median age 61 years (range 26-85) and median years from diagnosis 5.4 (0-21). Diagnoses included 50 CML (37 chronic [CP], 7 accelerated [AP], 6 blast phase [BP]), 3 Ph+ ALL, and 4 other malignancies (2 myelofibrosis, 1 myeloma, and 1 MDS).

Setting [4] is: T315I patients evaluable for CyR.

Sequence of PI3Kα (P42336 765-1051 limits assumed): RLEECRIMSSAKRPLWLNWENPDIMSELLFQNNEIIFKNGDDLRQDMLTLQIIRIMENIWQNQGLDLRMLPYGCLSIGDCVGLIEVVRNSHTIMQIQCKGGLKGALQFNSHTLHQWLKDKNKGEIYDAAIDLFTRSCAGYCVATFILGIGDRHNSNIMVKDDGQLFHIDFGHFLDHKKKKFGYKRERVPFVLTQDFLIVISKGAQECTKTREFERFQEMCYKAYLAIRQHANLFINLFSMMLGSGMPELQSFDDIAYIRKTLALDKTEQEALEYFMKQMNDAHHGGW
Sequence of PI3Kα (P27986 whole entry partner): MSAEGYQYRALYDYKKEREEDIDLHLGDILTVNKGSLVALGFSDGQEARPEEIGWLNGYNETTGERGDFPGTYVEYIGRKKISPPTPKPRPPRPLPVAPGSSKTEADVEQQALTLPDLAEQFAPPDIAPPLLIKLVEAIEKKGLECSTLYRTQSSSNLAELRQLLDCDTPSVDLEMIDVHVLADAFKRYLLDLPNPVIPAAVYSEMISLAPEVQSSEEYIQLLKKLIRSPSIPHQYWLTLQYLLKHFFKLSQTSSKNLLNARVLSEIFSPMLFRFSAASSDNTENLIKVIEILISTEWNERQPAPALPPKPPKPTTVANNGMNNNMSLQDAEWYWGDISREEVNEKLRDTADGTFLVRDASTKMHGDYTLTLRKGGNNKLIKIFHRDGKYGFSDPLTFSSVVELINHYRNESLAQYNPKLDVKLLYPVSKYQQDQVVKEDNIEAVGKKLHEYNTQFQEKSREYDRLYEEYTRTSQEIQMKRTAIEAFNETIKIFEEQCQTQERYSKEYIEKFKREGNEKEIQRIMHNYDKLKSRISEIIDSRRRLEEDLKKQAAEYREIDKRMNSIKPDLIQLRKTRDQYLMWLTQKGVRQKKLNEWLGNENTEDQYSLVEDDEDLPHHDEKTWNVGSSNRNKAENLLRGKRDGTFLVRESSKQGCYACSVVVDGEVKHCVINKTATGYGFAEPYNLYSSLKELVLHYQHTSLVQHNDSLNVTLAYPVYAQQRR

With `Cc1ccc(C(=O)Nc2ccc(CN3CCN(C)CC3)c(C(F)(F)F)c2)cc1C#Cc1cnc2cccnn12` [Compound 1, 3-(imidazo[1,2-b]pyridazin-3-ylethynyl)-4-methyl-N-(4-((4-methylpiperazin-1-yl)-methyl)-3-(trifluoromethyl)phenyl)benzamide], the EC50 in assay [1] was determined as 100 nM. Also, the IC50 in the assay with KY01 CML leukemia cells amounted to 0.4 nM. Besides, the IC50 at PI3Kα is more than 1000 nM. Also, the IC50 in assay [2] came out at 5.8 nM. Moreover, the IC50 in the assay with LAMA CML leukemia cells came to 0.3 nM. Further, in assay [3] (setting [4]), the “AP, BP, or ALL patients achieving CCyR” value stood at 1; the “AP, BP, or ALL patients achieving MCyR” value is 3; the “CP patients achieving CCyR” value stood at 5; the “CP patients achieving MCyR” value worked out at 6. Besides, the “MHR in AP, BP, or ALL patients” value in assay [3] (T315I subset) is 3 of 8. Further, the “MMRs in patients with T315I at baseline” value in assay [3] (human, in vivo) was found to be 4. Besides, the MMRs in assay [3] (in 32 CP patients) came to 8. In assay [3] (overall), the MCyR is on record as 12; the “complete cytogenetic responses (CCyR)” value was 8; the “major hematologic response (MHR) in AP, BP, or ALL patients” value was 5 of 12. Moreover, the “complete hematologic response (CHR) in CP patients” value in assay [3] is 85%. In addition, the “complete hematologic response (CHR) in CP patients” value in assay [3] (incl. new and baseline CHR) is recorded as 22 of 22.

The values above are taken from patent publication US20120316137A1, “Methods and Compositions for Treating Cancer” (priority 2009, published 2012).
